Test system: 695427-040-R-J1-PDC complex spheroid viability
Test: Anticancer human tumor 695427-040-R-J1-PDC patient-derived colon adenocarcinoma cell line growth inhibition [POLQ]
Conditions: for IC50: curve of first compound; for viability, T/C: stronger effect = lower value
In short: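 Patient-derived tumour cells were co-cultured with HUVEC and mesenchymal stem cells as multicellular spheroids at 37 °C. They were treated with POLQ inhibitors (novobiocin, ART-558, RP6685) alone or combined with other agents. Top concentrations were at or near clinical Cmax (otherwise 10 microM; SN-38 at 1 microM), decreasing in half-log steps.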

[1] = second compound 0.0316 µM, first compound 0.0316 µM
[2] = second compound 0.0316 µM, first compound 0.1 µM
[3] = second compound 0.0316 µM, first compound 0.316 µM
[4] = second compound 0.0316 µM, first compound 1 µM
[5] = second compound 0.0316 µM, first compound 3.16 µM
[6] = second compound 0.0316 µM, first compound 10 µM
[7] = second compound 0.1 µM, first compound 0.0316 µM
[8] = second compound 0.1 µM, first compound 0.1 µM
[9] = second compound 0.1 µM, first compound 0.316 µM
[10] = second compound 0.1 µM, first compound 1 µM
[11] = second compound 0.1 µM, first compound 3.16 µM
[12] = second compound 0.1 µM, first compound 10 µM
[13] = second compound 0.316 µM, first compound 0.0316 µM
[14] = second compound 0.316 µM, first compound 0.1 µM
[15] = second compound 0.316 µM, first compound 0.316 µM
[16] = second compound 0.316 µM, first compound 1 µM
[17] = second compound 0.316 µM, first compound 3.16 µM
[18] = second compound 0.316 µM, first compound 10 µM
[19] = second compound 1 µM, first compound 0.0316 µM
[20] = second compound 1 µM, first compound 0.1 µM
[21] = second compound 1 µM, first compound 0.316 µM
[22] = second compound 1 µM, first compound 1 µM
[23] = second compound 1 µM, first compound 3.16 µM
[24] = second compound 1 µM, first compound 10 µM
[25] = second compound 3.16 µM, first compound 0.0316 µM
[26] = second compound 3.16 µM, first compound 0.1 µM
[27] = second compound 3.16 µM, first compound 0.316 µM
[28] = second compound 3.16 µM, first compound 1 µM
[29] = second compound 3.16 µM, first compound 3.16 µM
[30] = second compound 3.16 µM, first compound 10 µM
[31] = second compound 10 µM, first compound 0.0316 µM
[32] = second compound 10 µM, first compound 0.1 µM
[33] = second compound 10 µM, first compound 0.316 µM
[34] = second compound 10 µM, first compound 1 µM
[35] = second compound 10 µM, first compound 3.16 µM
[36] = second compound 10 µM, first compound 10 µM
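Further: spheroids exposed to compounds for seven days.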
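Wherever viability, T/C is given: 100% = DMSO vehicle control viability.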

C#Cc1c(F)ccc2cc(O)cc(-c3ncc4c(N5CC6CCC(C5)N6)nc(OCC56CCCN5CC(F)C6)nc4c3F)c12 (stereo unspecified) + COC1C(OC(N)=O)C(O)C(Oc2ccc3c(O)c(NC(=O)c4ccc(O)c(CC=C(C)C)c4)c(=O)oc3c2C)OC1(C)C
IC50 (second compound 0.0316 µM): > 10 µM
IC50 (second compound 0.1 µM): > 10 µM
IC50 (second compound 0.316 µM): > 10 µM
IC50 (second compound 1 µM): > 10 µM
IC50 (second compound 3.16 µM): > 10 µM
IC50 (second compound 10 µM): > 10 µM
viability, T/C [1]: 113%
viability, T/C [2]: 99.8%
viability, T/C [3]: 108%
viability, T/C [4]: 107%
viability, T/C [5]: 97.3%
viability, T/C [6]: 96.5%
viability, T/C [7]: 110%
viability, T/C [8]: 97.6%
viability, T/C [9]: 105%
viability, T/C [10]: 99.9%
viability, T/C [11]: 102%
viability, T/C [12]: 84.7%
viability, T/C [13]: 107%
viability, T/C [14]: 101%
viability, T/C [15]: 98.2%
viability, T/C [16]: 99.2%
viability, T/C [17]: 95%
viability, T/C [18]: 90%
viability, T/C [19]: 101%
viability, T/C [20]: 97.9%
viability, T/C [21]: 108%
viability, T/C [22]: 97.1%
viability, T/C [23]: 97.1%
viability, T/C [24]: 91%
viability, T/C [25]: 105%
viability, T/C [26]: 109%
viability, T/C [27]: 98.7%
viability, T/C [28]: 94.8%
viability, T/C [29]: 104%
viability, T/C [30]: 90.7%
viability, T/C [31]: 107%
viability, T/C [32]: 104%
viability, T/C [33]: 104%
viability, T/C [34]: 95.6%
viability, T/C [35]: 101%
viability, T/C [36]: 80.4%

CC1COCCN1c1cc(C2(O)CC3CCC(C2)O3)c2cnn(-c3ccn[nH]3)c2n1 (stereo unspecified) + COC1C(OC(N)=O)C(O)C(Oc2ccc3c(O)c(NC(=O)c4ccc(O)c(CC=C(C)C)c4)c(=O)oc3c2C)OC1(C)C
IC50 (second compound 0.0316 µM): 3.94 µM
IC50 (second compound 0.1 µM): 4.71 µM
IC50 (second compound 0.316 µM): 5.84 µM
IC50 (second compound 1 µM): 4.12 µM
IC50 (second compound 3.16 µM): 4.5 µM
IC50 (second compound 10 µM): 4.12 µM
viability, T/C [1]: 105%
viability, T/C [2]: 86.8%
viability, T/C [3]: 75.3%
viability, T/C [4]: 64.9%
viability, T/C [5]: 50.9%
viability, T/C [6]: 41.9%
viability, T/C [7]: 116%
viability, T/C [8]: 88.6%
viability, T/C [9]: 79.1%
viability, T/C [10]: 61.5%
viability, T/C [11]: 52.6%
viability, T/C [12]: 44.9%
viability, T/C [13]: 99.9%
viability, T/C [14]: 84.7%
viability, T/C [15]: 83.7%
viability, T/C [16]: 71.2%
viability, T/C [17]: 54.3%
viability, T/C [18]: 44.6%
viability, T/C [19]: 97.9%
viability, T/C [20]: 91%
viability, T/C [21]: 75.9%
viability, T/C [22]: 64%
viability, T/C [23]: 51%
viability, T/C [24]: 45%
viability, T/C [25]: 102%
viability, T/C [26]: 91.2%
viability, T/C [27]: 80%
viability, T/C [28]: 62.6%
viability, T/C [29]: 52.4%
viability, T/C [30]: 45.3%
viability, T/C [31]: 129%
viability, T/C [32]: 91.8%
viability, T/C [33]: 77.4%
viability, T/C [34]: 63.9%
viability, T/C [35]: 50.3%
viability, T/C [36]: 44.6%

CCc1cc2c(N3CCc4c(cc(Cn5ccnc5)cc4-c4cn(C)nc4C(F)(F)F)C3=O)cc(C)nc2c(OC)n1 + COC1C(OC(N)=O)C(O)C(Oc2ccc3c(O)c(NC(=O)c4ccc(O)c(CC=C(C)C)c4)c(=O)oc3c2C)OC1(C)C
IC50 (second compound 0.0316 µM): > 10 µM
IC50 (second compound 0.1 µM): > 10 µM
IC50 (second compound 0.316 µM): > 10 µM
IC50 (second compound 1 µM): > 10 µM
IC50 (second compound 3.16 µM): > 10 µM
IC50 (second compound 10 µM): > 10 µM
viability, T/C [1]: 106%
viability, T/C [2]: 103%
viability, T/C [3]: 111%
viability, T/C [4]: 107%
viability, T/C [5]: 108%
viability, T/C [6]: 99.1%
viability, T/C [7]: 114%
viability, T/C [8]: 104%
viability, T/C [9]: 105%
viability, T/C [10]: 96.5%
viability, T/C [11]: 111%
viability, T/C [12]: 117%
viability, T/C [13]: 107%
viability, T/C [14]: 112%
viability, T/C [15]: 106%
viability, T/C [16]: 109%
viability, T/C [17]: 110%
viability, T/C [18]: 97.8%
viability, T/C [19]: 108%
viability, T/C [20]: 108%
viability, T/C [21]: 105%
viability, T/C [22]: 101%
viability, T/C [23]: 120%
viability, T/C [24]: 99.3%
viability, T/C [25]: 117%
viability, T/C [26]: 109%
viability, T/C [27]: 113%
viability, T/C [28]: 105%
viability, T/C [29]: 115%
viability, T/C [30]: 97.3%
viability, T/C [31]: 116%
viability, T/C [32]: 118%
viability, T/C [33]: 110%
viability, T/C [34]: 109%
viability, T/C [35]: 117%
viability, T/C [36]: 122%

— PubChem BioAssay AID1963840 (Molecular Pharmacology Branch, DTP, NCI, 2024)
